US20190343908A1, “Therapeutic Combination for the Treatment of Cancer” (Nerium Biotechnology Inc., priority 2011, published 2019)

Legend:
[1] = tested on: HCT-116 (colorectal cancer); experiment: Sulforhodamine B viability assay, HCT-116; assay type: cell-based, human; parameters: key: absorbance (optical density) at 570 nm, second wavelength subtracted; conditions: for Average SRB: HCT-116
From the text: (§1) Three different viability assays were chosen to complement each other and yielded results dependent on concentration and cell line: the Methyl Tetrazolium dye assay, the Sulforhodamine B fluorescent dye assay, and the Crystal Violet dye assay.
The Sulforhodamine B and Crystal Violet assays provide information about protein and were used to complement the Methyl-Tetrazolium dye assay. […] It is used for the quantification of cellular proteins of cultured cells. The assay using Crystal Violet, a dye that binds electrostatically to proteins and stains DNA, provides a reliable, simple assay for measuring viability of cells.
(§2) The Methyl Tetrazolium, Sulforhodamine B, and Crystal Violet assays were used to assess cell viabilities. The incubation times were 24 hours, 48 hours, and 72 hours. The Nerium oleander extract Anvirzel™ (a hot water extract of oleander obtained from Salud Integral, Honduras) was tested in concentrations ranging from 0.01 ng/mL to 10 ng/mL.
(§3) Cells were detached by trypsinization (Trypsin-0.25% EDTA, Invitrogen, 25200-072) during the logarithmic phase of culture growth and plated in 96-well plates (18.000 cells/well) (Corning, Costar 359) in a final volume of 200 μl of medium per well. […] The absorbance was measured after 24 hours, 48 hours, and 72 hours of incubation.
For the Sulforhodamine B assay, 96-well plates were fixed by 10% trichloroacetic acid (Fluka, 91228) and were incubated at 4° C. for 1 hour. Afterwards, plates were rinsed with water and cells were stained with 0.4% Sulforhodamine B (Sigma, 341738), dissolved in 1% acetic acid (Carlo Ebra, 401422) for 15 minutes at room temperature (RT). The unbound stain was washed twice with 1% acetic acid. Finally, 10 mM Tris Buffer pH 10.5 (Sigma, T6791) was added to dissolve the dye.
(§4) The optical density of each plate was measured on a μQuant spectrophotometer and the data were analyzed with Gen5 software (μQuant Biomolecular Spectrophotometer MQX200 and Gen5™ Microplate Data Collection & Analysis software, BioTek® Instruments. Inc, April 2008). Absorbance was measured at 570 nm for all assays and a second wavelength was measured in order to subtract noise. For the Methyl-Tetrazolium assay this second wavelength was 630 nm and for the Sulforhodamine B and Crystal Violet assays it was 690 nm.

[2] = tested on: HCT-15 (colorectal cancer); experiment: Methyl-Tetrazolium viability assay, HCT-15; assay type: cell-based, human; parameters: key to MTT Average: absorbance (optical density) at 570 nm, second wavelength subtracted; conditions: for MTT Average 24 h / MTT Average 48 h / MTT Average 72 h: HCT-15, Run 1
From the text: as §1
The Methyl-Tetrazolium dye assay measures the activity of enzymes in mitochondria. The dye precursor is taken up by cells, where it undergoes reduction to the purple formazan. It measures only the mitochondrial activity and, thus, it is not always a reliable indication of whether the cells themselves are alive or dead, since even a recently dead cell has […] enzyme activity in mitochondria. Intracellular glucose concentration, pH, and time before assay all affect the measurements.
as §2, §3
For the Methyl-Tetrazolium assay, the dye (Sigma, M2128; 5 mg/mL, diluted in phosphate-buffered saline) was added to each well and plates were incubated for 3 hours at 37° C. After the end of the incubation period, the medium was discarded and the cells were rinsed with phosphate-buffered saline. Finally, the formazan crystals were dissolved in dimethylsulphoxide (Sigma, D4540).
as §4

`N.N.[Cl][Pt][Cl]` [cisplatin] was tested, and the “SRB Average” value ([1]; HCT-116, Run 3, 24 h, 0.1 μg/ml CDDP) was 2.01, the “SRB Average” value ([1]; HCT-116, Run 3, 24 h, 1 μg/ml CDDP) was 2.129 and the “SRB Average” value ([1]; HCT-116, Run 3, 24 h, 10 μg/ml CDDP) was 2.05. For the same compound, the “SRB Average” value ([1]; HCT-116, Run 3, 24 h, 100 μg/ml CDDP) was 2.084, the “SRB Average” value ([1]; HCT-116, Run 3, 48 h, 0.1 μg/ml CDDP) was 1.933 and the “SRB Average” value ([1]; HCT-116, Run 3, 48 h, 1 μg/ml CDDP) was 1.394. The “SRB Average” value ([1]; HCT-116, Run 3, 48 h, 10 μg/ml CDDP) was 1.353, the “SRB Average” value ([1]; HCT-116, Run 3, 48 h, 100 μg/ml CDDP) was 1.136 and the “SRB Average” value ([1]; HCT-116, Run 3, 72 h, 0.1 μg/ml CDDP) was 2.357. The “SRB Average” value ([1]; HCT-116, Run 3, 72 h, 1 μg/ml CDDP) was 1.78, the “SRB Average” value ([1]; HCT-116, Run 3, 72 h, 10 μg/ml CDDP) was 1.876 and the “SRB Average” value ([1]; HCT-116, Run 3, 72 h, 100 μg/ml CDDP) was 1.404. For the same compound, the “Average SRB” value ([1]; Run 1, 24 h, 0.1 μg/ml CDDP) was 1.56, the “Average SRB” value ([1]; Run 1, 24 h, 1 μg/ml CDDP) was 1.606 and the “Average SRB” value ([1]; Run 1, 24 h, 10 μg/ml CDDP) was 1.527. The “Average SRB” value ([1]; Run 1, 24 h, 100 μg/ml CDDP) was 1.736, the “Average SRB” value ([1]; Run 1, 48 h, 0.1 μg/ml CDDP) was 2.278 and the “Average SRB” value ([1]; Run 1, 48 h, 1 μg/ml CDDP) was 2.16. For the same compound, the “Average SRB” value ([1]; Run 1, 48 h, 10 μg/ml CDDP) was 2.055, the “Average SRB” value ([1]; Run 1, 48 h, 100 μg/ml CDDP) was 1.169 and the “Average SRB” value ([1]; Run 1, 72 h, 0.1 μg/ml CDDP) was 2.449. For the same compound, the “Average SRB” value ([1]; Run 1, 72 h, 1 μg/ml CDDP) was 1.569, the “Average SRB” value ([1]; Run 1, 72 h, 10 μg/ml CDDP) was 1.67 and the “Average SRB” value ([1]; Run 1, 72 h, 100 μg/ml CDDP) was 1.616. For the same compound, the “Average SRB” value ([1]; Run 2, 24 h, 0.1 μg/ml CDDP) was 1.357, the “Average SRB” value ([1]; Run 2, 24 h, 1 μg/ml CDDP) was 1.199 and the “Average SRB” value ([1]; Run 2, 24 h, 10 μg/ml CDDP) was 1.056. The “Average SRB” value ([1]; Run 2, 24 h, 100 μg/ml CDDP) was 1.173, the “Average SRB” value ([1]; Run 2, 48 h, 0.1 μg/ml CDDP) was 2.886 and the “Average SRB” value ([1]; Run 2, 48 h, 1 μg/ml CDDP) was 2.878. For the same compound, the “Average SRB” value ([1]; Run 2, 48 h, 10 μg/ml CDDP) was 2.746, the “Average SRB” value ([1]; Run 2, 48 h, 100 μg/ml CDDP) was 2.664 and the “Average SRB” value ([1]; Run 2, 72 h, 0.1 μg/ml CDDP) was 2.909. For the same compound, the “Average SRB” value ([1]; Run 2, 72 h, 1 μg/ml CDDP) was 2.703, the “Average SRB” value ([1]; Run 2, 72 h, 10 μg/ml CDDP) was 2.728 and the “Average SRB” value ([1]; Run 2, 72 h, 100 μg/ml CDDP) was 2.514. For the same compound, the “MTT Average 24 h” value ([2]; 0.1 μg/ml CDDP) was 0.218, the “MTT Average 48 h” value ([2]; 0.1 μg/ml CDDP) was 0.324 and the “MTT Average 72 h” value ([2]; 0.1 μg/ml CDDP) was 0.464. The “MTT Average 24 h” value ([2]; 1 μg/ml CDDP) was 0.032, the “MTT Average 48 h” value ([2]; 1 μg/ml CDDP) was 0.032 and the “MTT Average 72 h” value ([2]; 1 μg/ml CDDP) was 0.025. The “MTT Average 24 h” value ([2]; 10 μg/ml CDDP) was 0.1, the “MTT Average 48 h” value ([2]; 10 μg/ml CDDP) was 0.046 and the “MTT Average 72 h” value ([2]; 10 μg/ml CDDP) was 0.03. The “MTT Average 24 h” value ([2]; 100 μg/ml CDDP) was 0.034, the “MTT Average 48 h” value ([2]; 100 μg/ml CDDP) was 0.023 and the “MTT Average 72 h” value ([2]; 100 μg/ml CDDP) was 0.017. For the same compound, the “MTT Average” value ([2]; Run 2, 24 h, 0.1 μg/ml CDDP) was 0.141, the “MTT Average” value ([2]; Run 2, 24 h, 1 μg/ml CDDP) was 0.03 and the “MTT Average” value ([2]; Run 2, 24 h, 10 μg/ml CDDP) was 0.094. The “MTT Average” value ([2]; Run 2, 24 h, 100 μg/ml CDDP) was 0.025, the “MTT Average” value ([2]; Run 2, 48 h, 0.1 μg/ml CDDP) was 0.233 and the “MTT Average” value ([2]; Run 2, 48 h, 1 μg/ml CDDP) was 0.031. For the same compound, the “MTT Average” value ([2]; Run 2, 48 h, 10 μg/ml CDDP) was 0.067, the “MTT Average” value ([2]; Run 2, 48 h, 100 μg/ml CDDP) was 0.014 and the “MTT Average” value ([2]; Run 2, 72 h, 0.1 μg/ml CDDP) was 0.214. The “MTT Average” value ([2]; Run 2, 72 h, 1 μg/ml CDDP) was 0.016, the “MTT Average” value ([2]; Run 2, 72 h, 10 μg/ml CDDP) was 0.041 and the “MTT Average” value ([2]; Run 2, 72 h, 100 μg/ml CDDP) was 0.01. The “MTT Average” value ([2]; Run 3, 24 h, 0.1 μg/ml CDDP) was 0.294, the “MTT Average” value ([2]; Run 3, 24 h, 1 μg/ml CDDP) was 0.028 and the “MTT Average” value ([2]; Run 3, 24 h, 10 μg/ml CDDP) was 0.137. The “MTT Average” value ([2]; Run 3, 24 h, 100 μg/ml CDDP) was 0.039, the “MTT Average” value ([2]; Run 3, 48 h, 0.1 μg/ml CDDP) was 0.391 and the “MTT Average” value ([2]; Run 3, 48 h, 1 μg/ml CDDP) was 0.035. The “MTT Average” value ([2]; Run 3, 48 h, 10 μg/ml CDDP) was 0.104, the “MTT Average” value ([2]; Run 3, 48 h, 100 μg/ml CDDP) was 0.026 and the “MTT Average” value ([2]; Run 3, 72 h, 0.1 μg/ml CDDP) was 0.457. The “MTT Average” value ([2]; Run 3, 72 h, 1 μg/ml CDDP) was 0.039, the “MTT Average” value ([2]; Run 3, 72 h, 10 μg/ml CDDP) was 0.043 and the “MTT Average” value ([2]; Run 3, 72 h, 100 μg/ml CDDP) was 0.017.
